Assays:
[1] = molecular target: T1, Cysteinyl leukotriene receptor 1 (Homo sapiens, UniProt Q9Y271); assay type: cell membranes, CHO-K1, Membrane; conditions: cho-k1; further: in other assays of this panel Not Active means under 50% inhibition at 10 µM
T1 sequence (Q9Y271 whole entry): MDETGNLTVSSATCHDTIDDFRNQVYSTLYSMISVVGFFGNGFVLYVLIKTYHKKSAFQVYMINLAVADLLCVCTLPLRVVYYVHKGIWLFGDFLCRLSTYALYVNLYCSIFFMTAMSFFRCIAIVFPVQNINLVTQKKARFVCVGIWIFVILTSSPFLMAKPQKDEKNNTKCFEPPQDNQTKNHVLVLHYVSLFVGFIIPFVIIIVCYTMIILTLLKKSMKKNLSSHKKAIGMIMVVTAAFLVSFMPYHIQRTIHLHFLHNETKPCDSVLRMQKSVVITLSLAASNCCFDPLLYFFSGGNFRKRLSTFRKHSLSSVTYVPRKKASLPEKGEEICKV

Leukotriene C4 synthase = molecular target: T2, Leukotriene C4 synthase (Cavia porcellus, UniProt A6XA80); test: biochemical; assay type: tissue-based, Lung;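 further: enzyme inhibition assay of leukotriene C4 synthase, using LTA4 as the substrate; in other assays of this panel Not Active means under 50% inhibition at 10 µM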
T2 sequence (A6XA80 whole entry): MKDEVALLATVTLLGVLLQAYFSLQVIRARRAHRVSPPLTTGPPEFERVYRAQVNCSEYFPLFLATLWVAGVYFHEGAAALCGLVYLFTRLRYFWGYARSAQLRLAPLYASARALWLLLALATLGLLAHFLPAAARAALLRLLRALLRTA

Adenosine receptor A3 = molecular target: T3, Adenosine receptor A3 (Homo sapiens, UniProt P0DMS8); assay type: cell membranes, CHO-K1, Membrane; conditions: for Ki: read-out: Ki;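 on all read-outs here: radioligand binding assay with AB-MECA serving as the labeled ligand; in other assays of this panel Not Active means under 50% inhibition at 10 µM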
T3 sequence (P0DMS8 whole entry): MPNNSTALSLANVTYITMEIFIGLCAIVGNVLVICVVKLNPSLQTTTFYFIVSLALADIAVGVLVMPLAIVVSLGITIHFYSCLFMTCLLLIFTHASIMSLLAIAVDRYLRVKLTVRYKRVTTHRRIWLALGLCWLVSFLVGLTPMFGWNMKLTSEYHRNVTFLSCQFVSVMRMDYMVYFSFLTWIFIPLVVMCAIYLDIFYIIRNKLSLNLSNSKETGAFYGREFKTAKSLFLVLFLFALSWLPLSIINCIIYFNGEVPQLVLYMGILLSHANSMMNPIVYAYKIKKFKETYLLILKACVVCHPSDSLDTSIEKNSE

[2] = molecular target: Aldo-keto reductase family 1 member B1 (Rattus norvegicus, UniProt P07943); assay type: tissue-based, Lens of camera-type eye;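 further: inhibition of aldose reductase enzyme activity, measured with DL-glyceraldehyde as the substrate; in other assays of this panel Not Active means under 50% inhibition at 10 µM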
[3] = molecular target: Beta-2 adrenergic receptor (Homo sapiens, UniProt P07550); test: DRUGMATRIX: Adrenergic beta2 radioligand binding (ligand: [3H] CGP-12177); assay type: cell membranes, Membrane; conditions: cho; Not Active = under 50% inhibition at 10 µM
[4] = molecular target: Protein kinase C alpha type (Homo sapiens, UniProt P17252); assay type: cell-based; conditions: sf9
[5] = DRUGMATRIX: ATPase, Na+/K+ enzyme inhibition (substrate: ATP); assay type: tissue-based, Sus scrofa, Heart; conditions: Not Active = under 50% inhibition at 10 µM
[6] = DRUGMATRIX: Potassium Channel [KATP] radioligand binding (ligand: [3H] Glyburide); assay type: cell membranes, Membrane; conditions: hit-t15; Not Active = under 50% inhibition at 10 µM
[7] = molecular target: Kappa-type opioid receptor (Homo sapiens, UniProt P41145); test: DRUGMATRIX: Opiate kappa (OP2, KOP) radioligand binding (ligand: [3H] Diprenorphine); assay type: cell membranes, HEK293, Membrane; conditions: hek293; Not Active = under 50% inhibition at 10 µM
[8] = molecular target: Tyrosine-protein kinase Fyn (Homo sapiens, UniProt P06241); test: biochemical; assay type: cell-based, Insect cells
[9] = DRUGMATRIX: Phosphodiesterase PDE3 enzyme inhibition (substrate: [3H]cAMP + cAMP); assay type: tissue-based, Homo sapiens; conditions: platelet; Not Active = under 50% inhibition at 10 µM
[10] = molecular target: T4, Muscarinic acetylcholine receptor M5 (Homo sapiens, UniProt P08912); assay type: cell membranes, CHO-K1, Membrane; further: in other assays of this panel Not Active means under 50% inhibition at 10 µM
T4 sequence (P08912 whole entry): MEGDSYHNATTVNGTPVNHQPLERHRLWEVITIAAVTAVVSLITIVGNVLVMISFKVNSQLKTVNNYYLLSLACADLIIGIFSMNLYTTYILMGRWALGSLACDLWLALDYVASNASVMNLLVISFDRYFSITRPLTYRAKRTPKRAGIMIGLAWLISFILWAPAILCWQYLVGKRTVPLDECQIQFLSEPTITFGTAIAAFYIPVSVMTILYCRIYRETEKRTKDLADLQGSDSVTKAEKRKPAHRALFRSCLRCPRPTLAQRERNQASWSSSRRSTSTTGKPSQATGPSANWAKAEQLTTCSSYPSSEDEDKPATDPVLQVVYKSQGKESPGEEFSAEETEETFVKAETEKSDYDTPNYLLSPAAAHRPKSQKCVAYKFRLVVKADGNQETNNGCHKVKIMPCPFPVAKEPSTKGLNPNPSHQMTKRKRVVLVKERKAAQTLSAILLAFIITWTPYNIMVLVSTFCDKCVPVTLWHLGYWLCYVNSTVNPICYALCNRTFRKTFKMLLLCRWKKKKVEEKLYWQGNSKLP

[11] = molecular target: Vascular endothelial growth factor receptor 1 (Homo sapiens, UniProt P17948); assay type: cell-based; conditions: huvec; further: in other assays of this panel Not Active means under 50% inhibition at 10 µM
[12] = molecular target: T5, 5-hydroxytryptamine receptor 1A (Rattus norvegicus, UniProt P19327); assay type: cell membranes, CHO-K1, Membrane; further: in other assays of this panel Not Active means under 50% inhibition at 10 µM
T5 sequence (P19327 whole entry): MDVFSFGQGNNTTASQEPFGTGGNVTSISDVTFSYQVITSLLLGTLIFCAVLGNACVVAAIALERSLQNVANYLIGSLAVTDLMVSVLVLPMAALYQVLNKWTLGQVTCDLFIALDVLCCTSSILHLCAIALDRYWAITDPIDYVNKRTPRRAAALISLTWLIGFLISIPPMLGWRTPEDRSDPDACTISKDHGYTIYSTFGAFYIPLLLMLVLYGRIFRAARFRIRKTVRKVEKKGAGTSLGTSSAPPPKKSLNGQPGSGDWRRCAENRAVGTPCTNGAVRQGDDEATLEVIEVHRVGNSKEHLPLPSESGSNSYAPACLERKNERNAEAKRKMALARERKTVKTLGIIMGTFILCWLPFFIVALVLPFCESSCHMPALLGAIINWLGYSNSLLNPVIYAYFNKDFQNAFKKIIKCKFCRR

Melanocortin receptor 3 = Melanocortin receptor 3 (Homo sapiens, UniProt P41968); assay type: cell membranes, Membrane; conditions: hek293; further: in other assays of this panel Not Active means under 50% inhibition at 10 µM
Carbonic anhydrase 2 = Carbonic anhydrase 2 (Homo sapiens, UniProt P00918); test: DRUGMATRIX: Carbonic Anhydrase II enzyme inhibition (substrate: 4-Nitrophenyl acetate (4-NPA)); assay type: tissue-based, Erythrocyte; conditions: erythrocyte; Not Active = under 50% inhibition at 10 µM
[13] = DRUGMATRIX: GABAA, Chloride Channel, TBOB radioligand binding (ligand: [3H] TBOB); assay type: cell membranes, Rattus norvegicus, Wistar, Cerebral cortex, Membrane; conditions: Not Active = under 50% inhibition at 10 µM

Sequence of Melanocortin receptor 3 (P41968 whole entry): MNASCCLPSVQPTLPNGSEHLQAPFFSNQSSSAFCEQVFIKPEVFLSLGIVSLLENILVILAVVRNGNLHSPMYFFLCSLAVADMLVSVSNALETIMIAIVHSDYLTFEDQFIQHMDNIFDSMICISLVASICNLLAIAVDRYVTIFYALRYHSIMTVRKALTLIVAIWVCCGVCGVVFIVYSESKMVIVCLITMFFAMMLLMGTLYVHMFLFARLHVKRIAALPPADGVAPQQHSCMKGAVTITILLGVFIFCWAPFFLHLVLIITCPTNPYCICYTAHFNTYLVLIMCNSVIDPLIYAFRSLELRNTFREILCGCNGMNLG
Sequence of Beta-2 adrenergic receptor (P07550 whole entry): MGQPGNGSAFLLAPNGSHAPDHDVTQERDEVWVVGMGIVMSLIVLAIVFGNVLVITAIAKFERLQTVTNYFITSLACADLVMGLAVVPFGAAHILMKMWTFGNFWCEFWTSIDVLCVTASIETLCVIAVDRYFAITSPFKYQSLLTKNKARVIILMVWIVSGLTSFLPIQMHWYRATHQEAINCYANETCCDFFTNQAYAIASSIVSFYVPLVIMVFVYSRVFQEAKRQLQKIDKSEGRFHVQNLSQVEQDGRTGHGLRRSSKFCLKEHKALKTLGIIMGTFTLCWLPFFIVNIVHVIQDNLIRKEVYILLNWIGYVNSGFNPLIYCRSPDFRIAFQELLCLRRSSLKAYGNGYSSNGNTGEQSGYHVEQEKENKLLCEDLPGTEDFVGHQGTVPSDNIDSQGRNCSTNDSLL
Sequence of Kappa-type opioid receptor (P41145 whole entry): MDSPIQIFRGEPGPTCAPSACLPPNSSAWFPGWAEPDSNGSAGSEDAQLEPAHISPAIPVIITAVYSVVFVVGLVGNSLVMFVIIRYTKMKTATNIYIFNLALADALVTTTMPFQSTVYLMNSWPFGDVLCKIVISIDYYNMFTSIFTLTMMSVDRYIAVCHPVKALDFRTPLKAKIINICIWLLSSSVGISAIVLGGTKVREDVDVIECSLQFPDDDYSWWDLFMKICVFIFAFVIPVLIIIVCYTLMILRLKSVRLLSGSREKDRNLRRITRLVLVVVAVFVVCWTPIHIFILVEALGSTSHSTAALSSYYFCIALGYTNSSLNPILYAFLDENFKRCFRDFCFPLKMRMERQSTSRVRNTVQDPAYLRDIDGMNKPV
Sequence of Tyrosine-protein kinase Fyn (P06241 whole entry): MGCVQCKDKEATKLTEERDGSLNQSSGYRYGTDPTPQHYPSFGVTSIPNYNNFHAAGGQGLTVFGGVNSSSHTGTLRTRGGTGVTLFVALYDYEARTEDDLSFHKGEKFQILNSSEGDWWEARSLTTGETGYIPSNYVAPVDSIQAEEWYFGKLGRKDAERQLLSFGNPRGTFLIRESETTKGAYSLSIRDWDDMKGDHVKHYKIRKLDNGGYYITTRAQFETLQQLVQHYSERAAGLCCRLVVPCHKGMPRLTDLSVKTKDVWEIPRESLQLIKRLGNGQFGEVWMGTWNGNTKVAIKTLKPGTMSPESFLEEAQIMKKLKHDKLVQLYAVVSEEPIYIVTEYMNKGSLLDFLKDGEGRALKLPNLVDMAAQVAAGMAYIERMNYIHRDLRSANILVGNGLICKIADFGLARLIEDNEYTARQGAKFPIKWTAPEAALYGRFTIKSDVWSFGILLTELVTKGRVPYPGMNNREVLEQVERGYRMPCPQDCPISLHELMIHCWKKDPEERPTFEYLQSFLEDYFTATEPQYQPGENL
Sequence of Vascular endothelial growth factor receptor 1 (P17948 whole entry): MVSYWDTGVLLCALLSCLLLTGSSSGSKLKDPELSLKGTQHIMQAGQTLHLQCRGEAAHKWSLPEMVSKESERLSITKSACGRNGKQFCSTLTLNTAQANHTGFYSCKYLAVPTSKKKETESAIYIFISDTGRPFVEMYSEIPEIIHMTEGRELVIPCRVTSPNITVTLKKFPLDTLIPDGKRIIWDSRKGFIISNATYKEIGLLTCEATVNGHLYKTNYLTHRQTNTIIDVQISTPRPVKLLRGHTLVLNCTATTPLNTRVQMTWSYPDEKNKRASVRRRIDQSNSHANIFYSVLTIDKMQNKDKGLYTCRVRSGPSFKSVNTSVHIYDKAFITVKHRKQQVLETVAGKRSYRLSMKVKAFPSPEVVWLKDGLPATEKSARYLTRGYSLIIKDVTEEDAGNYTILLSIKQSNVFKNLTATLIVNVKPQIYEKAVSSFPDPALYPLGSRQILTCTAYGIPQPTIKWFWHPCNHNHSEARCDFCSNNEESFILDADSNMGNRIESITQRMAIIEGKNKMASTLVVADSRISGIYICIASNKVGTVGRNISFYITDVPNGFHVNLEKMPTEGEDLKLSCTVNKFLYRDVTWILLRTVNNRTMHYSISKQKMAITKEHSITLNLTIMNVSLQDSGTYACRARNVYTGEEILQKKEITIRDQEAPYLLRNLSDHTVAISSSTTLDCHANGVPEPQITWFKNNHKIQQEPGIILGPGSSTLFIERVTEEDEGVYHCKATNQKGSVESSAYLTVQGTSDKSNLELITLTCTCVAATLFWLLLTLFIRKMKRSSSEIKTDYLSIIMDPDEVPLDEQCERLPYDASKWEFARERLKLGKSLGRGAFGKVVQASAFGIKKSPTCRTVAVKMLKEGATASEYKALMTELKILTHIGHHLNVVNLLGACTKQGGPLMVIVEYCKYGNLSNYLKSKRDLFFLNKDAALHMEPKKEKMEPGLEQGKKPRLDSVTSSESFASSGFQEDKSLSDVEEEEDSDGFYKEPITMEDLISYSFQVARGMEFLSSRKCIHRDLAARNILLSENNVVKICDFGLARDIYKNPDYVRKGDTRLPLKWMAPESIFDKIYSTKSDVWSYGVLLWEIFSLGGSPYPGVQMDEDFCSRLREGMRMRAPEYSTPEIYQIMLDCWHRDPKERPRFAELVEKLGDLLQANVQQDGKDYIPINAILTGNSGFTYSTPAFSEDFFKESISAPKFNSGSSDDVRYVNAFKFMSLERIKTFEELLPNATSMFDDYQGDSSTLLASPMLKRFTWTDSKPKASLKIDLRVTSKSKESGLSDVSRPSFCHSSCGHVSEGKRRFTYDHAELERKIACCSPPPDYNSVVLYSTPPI

Compound	IC50 [1]	IC50 (Leukotriene C4 synthase)	IC50 (Adenosine receptor A3; cho-k1)	IC50 [2]	IC50 [3]	IC50 [4]	IC50 [5]	Ki [5]	IC50 [6]	IC50 [7]	IC50 ([8]; insect cells)	IC50 [9]	Ki [9]	IC50 ([10]; cho-k1)	IC50 [11]	IC50 ([12]; cho-k1)	IC50 (Melanocortin receptor 3)	IC50 (Carbonic anhydrase 2)	IC50 [13]	Ki [13]	other results
CCOC(=O)[C@H](CCc1ccccc1)N[C@@H](C)C(=O)N1[C@H](C(=O)O)C[C@@H]2CCC[C@@H]21	Not Active	Not Active	Not Active	Not Active	Not Active	Not Active	Not Active	Not Active	Not Active	Not Active	Not Active	Not Active	Not Active	Not Active	Not Active	Not Active	Not Active	Not Active	Not Active	Not Active	Ki [6]: Not Active
CC(C)(C)NC(=O)[C@@H]1CN(Cc2cccnc2)CCN1C[C@@H](O)C[C@@H](Cc1ccccc1)C(=O)N[C@H]1c2ccccc2C[C@H]1O.O	Not Active	Not Active	Not Active	Not Active	Not Active	Not Active	Not Active	Not Active	Not Active	Not Active	Not Active	Not Active	Not Active	Not Active	Not Active	Not Active	Not Active	Not Active	Not Active	Not Active	Ki [6]: Not Active
CC1(C)[C@H]2CC[C@]1(C)C(=O)C2 [(-)-CAMPHOR]	Not Active	Not Active	Not Active	Not Active	Not Active	Not Active	Not Active	Not Active	Not Active	Not Active	Not Active	Not Active	Not Active	Not Active	Not Active	Not Active	Not Active	Not Active	Not Active	Not Active	Ki [6]: Not Active
Oc1c(I)cc(I)c2cccnc12 [IODOQUINOL]	Not Active	Not Active		Not Active	Not Active	Not Active	Not Active	Not Active	Not Active	Not Active		Not Active	Not Active	Not Active	Not Active	Not Active	Not Active	Not Active	Not Active	Not Active	IC50 (Adenosine receptor A3; read-out: IC50): 933 nM; Ki (Adenosine receptor A3): 527 nM; Ki [6]: Not Active; IC50 ([8]; read-out: IC50): 1570 nM
NNC(=O)c1ccncc1 [ISONIAZID]	Not Active	Not Active	Not Active	Not Active	Not Active	Not Active	Not Active	Not Active	Not Active	Not Active	Not Active	Not Active	Not Active	Not Active	Not Active	Not Active	Not Active	Not Active	Not Active	Not Active	Ki [6]: Not Active
CC1=C(/C=C/C(C)=C/C=C/C(C)=C\C(=O)O)C(C)(C)CCC1 [ISOTRETINOIN]	Not Active	Not Active		Not Active	Not Active	Not Active	Not Active	Not Active	Not Active	Not Active	Not Active	Not Active	Not Active	Not Active	Not Active	Not Active	Not Active	Not Active	Not Active	Not Active	IC50 (Adenosine receptor A3; read-out: IC50): 4170 nM; Ki (Adenosine receptor A3): 2360 nM; Ki [6]: Not Active
NCCCC[C@H](N[C@@H](CCc1ccccc1)C(=O)O)C(=O)N1CCC[C@H]1C(=O)O [LISINOPRIL ANHYDROUS]	Not Active	Not Active	Not Active	Not Active	Not Active	Not Active	Not Active	Not Active		Not Active	Not Active	Not Active	Not Active	Not Active	Not Active	Not Active	Not Active	Not Active	Not Active	Not Active	
CN1CCN2c3ccccc3Cc3ccccc3C2C1 (configuration not stated) [MIANSERIN]	Not Active	Not Active	Not Active	Not Active	Not Active	Not Active				Not Active	Not Active				Not Active		Not Active	Not Active			IC50 ([10]; read-out: IC50): 320 nM; Ki ([10]; read-out: Ki): 230 nM; IC50 ([12]; read-out: IC50): 872 nM; Ki ([12]; read-out: Ki): 498 nM

— ChEMBL document CHEMBL1909046, “DrugMatrix in vitro pharmacology data”
